Reference: patent US7223533B2, “Cell surface proteins and use thereof as indicators of activation of cellular signal transduction pathways” (priority 1999, dated 2007)

Columns and labels:
[1] = molecular target: T1, human melatonin 1a receptor (ML1aR) (Homo sapiens, UniProt P48039); assay: ELISA of DTT-extracted cell surface Aga2-HA induction (HA.11 antibody, HRP readout); assay type: cell-based; conditions: for HRP activity: yeast cells, Aga2-HA
T1 construct: expressed in transfected cells; host or cells: S. cerevisiae (CY17353 in A11/A12; aga1 mutant CY19890 in A13), plasmid Cp2695 (PGKp-ML1aR)
Description: (§1) The cells (TOD600=1.5) were pelleted, washed with ice-cold 0.15 M sodium chloride, resuspended in 50 microliters of 25 mM Tris-HCl, pH 8.5, supplemented with 10 mM dithiothreitol (DTI) and incubated for1 hour at 4° C. This DTT incubation step reduced the disulfide bonds between the Aga1 and Aga2 proteins, thereby releasing Aga2 into the extracellular medium. After centrifugation, 50 microliter aliquots of the supernatants were subjected to Western blot analysis. Immunoreactive bands corresponding to Aga2-HA were visualized using HA.11 antibodies (BAbCo) as primary antibodies, sheep anti-mouse IgG conjugated with horseradish peroxidase (Amarsham Pharmacia Biotech) as secondary antibodies, and peroxidase substrate (e.g., tetramethyl benzidine (Pierce)) for a visual readout.
(§2) Western blot analysis is a qualitative, rather than quantitative methodology. To determine the induction of expression of the Aga2 protein quantitatively, an ELISA strategy was utilized. Cells were cultured, treated, and the Aga2 protein extracted from the cell surface by DTT incubation, as above. Aliquots of these DTT extracts (50 microliters in the case of cells utilizing the Ste2 receptor and 5 microliters in other cases) were diluted to 100 microliters with 100 mM sodium bicarbonate, pH 9.5. Samples were incubated in 96-well polystyrene plates at 4 degrees C overnight. Plates were washed three times with PBS, pH 7.2 supplemented with 0.1% Tween 20 and blocked with the same buffer containing 3% bovine serum albumin at 37° C. for 1 hr. After blocking, the plates were incubated subsequently with 5000-fold diluted HA.11 antibodies (BAbCo) and 5000-fold diluted sheep anti-mouse IgG conjugated with horseradish peroxidase (Amersham Pharmacia Biotech). Each incubation was conducted at room temperature for 1 hr and was followed by three washes with PBS, pH 7.2, 0.1% Tween 20. The peroxidase activities in each well were determined using tetramethyl benzidine as a substrate.

[2] = molecular target: T2, human melatonin 1a receptor (Homo sapiens, UniProt P48039); assay: Western blot of DTT-extracted Aga2-HA; assay type: cell-based; conditions: increasing concentrations of ligand vs absence
T2 construct: expressed in transfected cells; host or cells: S. cerevisiae (CY17353 in A11/A12; aga1 mutant CY19890 in A13), plasmid Cp2695 (PGKp-ML1aR)
Description: as §1

[3] = molecular target: T3, ML1a receptor (Homo sapiens, UniProt P48039); assay: ELISA-like assay of endogenous Aga2 protein with Sag1p21-352; assay type: cell-based; conditions: yeast cells containing the ML1a receptor, peroxidase assay
T3 construct: expressed in transfected cells; host or cells: S. cerevisiae (CY17353 in A11/A12; aga1 mutant CY19890 in A13), plasmid Cp2695 (PGKp-ML1aR)
Description: (§3) Extraction of the endogenous Aga2 protein was effected with DTT, as before. Aliquots (25 microliters) of extracts were diluted with 75 microliters of 100 mM sodium bicarbonate, pH 9.5 and the resulting samples were incubated in 96-well polystyrene plates at 4° C. overnight.
(§4) After washing the plates three times with PBS, pH 6.5, supplemented with 0.1% Tween 20, samples were blocked with the same buffer containing 3% bovine serum albumin at 37° C. for 1 hour. After blocking, the plates were incubated subsequently with EndoH-treated Sag1p^21-352 solution (0.5 mg/ml), 1000-fold diluted anti-Xpress antibodies (Invitrogen) and 5000-fold diluted sheep anti-mouse IgG conjugated with horseradish peroxidase (Amersham Pharmacia Biotech). Both Sag1p^21-352 and antibodies were dissolved in PBS, pH 6.5 supplemented with 3% BSA. Each incubation was conducted at room temperature for 1 hr and was followed by three washes with PBS, pH 6.5, 0.1% Tween 20. Finally, the peroxidase activities in each well were determined using tetramethyl benzidine as a substrate. If the Aga2 protein were present in the plate, the Sag1p^21-352 should bind to it, the anti-Xpress antibody binds to the Sag1p^21-352 fusion protein, and the sheep anti-mouse IgG antibodies bind specifically to the anti-Xpress antibody.

[4] = molecular target: T4, ML1aR (Homo sapiens, UniProt P48039); assay: Scintillation proximity assay of secreted HA-tagged Aga2p (aga1 mutant strain CY19890); assay type: cell-based; conditions: 1 μM melatonin
T4 construct: expressed in transfected cells; host or cells: S. cerevisiae (CY17353 in A11/A12; aga1 mutant CY19890 in A13), plasmid Cp2695 (PGKp-ML1aR)
Description: A particular embodiment of these types of cell-free Aga2 assays is the scintillation proximity assay. In this technique, the extracellular medium potentially containing the Aga2 protein is incubated with antibodies specific for Aga2. These antibodies are also biotinylated, and thus the antibody-Aga2 complex can be tethered to the surface of SPA beads coated with streptavidin (and also containing scintillant). Sag1p^21-352 is radiolabeled with, e.g., ^125I or ^3H, and is incubated with the Aga2-loaded beads. Binding of the fusion protein to the immobilized Aga2 protein brings the radiolabel in proximity to the scintillant contained within the beads, resulting in the emission of light. This emission can be readily quantitated using a scintillation counter. The presence of light indicates the presence of the Aga2 protein, and thus that the pheromone response pathway was activated in the yeast cells by the test compound via the G protein coupled receptor.
The following experiment was conducted in order to test the utility of the scintillation proximity assay for the detection of Aga2p induction mediated by heterologous receptors in yeast. […] One hundred microliter aliquots of culture media were placed into a 96-well plate and the following solutions were added to each well: 20 μl of 0.5 M sodium phosphate, pH 6.0, 1.5 M sodium chloride, 1% Tween 20, 10% BSA; 0.25 μg of SPA beads (Amersham) coated with biotinylated HA.11 antibodies (BAbCo) in 25 μl of PBS (20 mM sodium phosphate, pH 7.2, 0.15 M sodium chloride) and 25 μl of PBS containing [1^25,]-Sag1p^21-352 (250,000 cpm). SPA beads were prepared as follows. Fifty milligrams of streptavidin-coated yttrium silicate beads were incubated in 2 ml of PBS containing 1% BSA, 0.1% Tween 20 and 0.5 mg biotinylated HA. 11 antibodies for 4 hr at room temperature. The beads were washed three times with PBS and resuspended in 1 ml of the same buffer. Sag1p^21-352 was iodinated according to standard protocols using lactoperoxidase.
Light emission was quantitated using a scintillation counter after incubation of the plate at room temperature for 1 hr, 2 hr and 6 hr.

[5] = molecular target: T5, Ste2p (Saccharomyces cerevisiae, UniProt D6VTK4); assay: ELISA of DTT-extracted cell surface Aga2-HA induction (HA.11 antibody, HRP readout); assay type: cell-based, S. cerevisiae; conditions: for HRP activity: yeast cells, Aga2-HA
T5 construct: Yeast cells coexpressing either the endogenous yeast receptor Ste2p; endogenous in cells; host or cells: S. cerevisiae MATa cells (strain CY1892 in the Sag1p-based ELISA)
T5 sequence (D6VTK4 1-431): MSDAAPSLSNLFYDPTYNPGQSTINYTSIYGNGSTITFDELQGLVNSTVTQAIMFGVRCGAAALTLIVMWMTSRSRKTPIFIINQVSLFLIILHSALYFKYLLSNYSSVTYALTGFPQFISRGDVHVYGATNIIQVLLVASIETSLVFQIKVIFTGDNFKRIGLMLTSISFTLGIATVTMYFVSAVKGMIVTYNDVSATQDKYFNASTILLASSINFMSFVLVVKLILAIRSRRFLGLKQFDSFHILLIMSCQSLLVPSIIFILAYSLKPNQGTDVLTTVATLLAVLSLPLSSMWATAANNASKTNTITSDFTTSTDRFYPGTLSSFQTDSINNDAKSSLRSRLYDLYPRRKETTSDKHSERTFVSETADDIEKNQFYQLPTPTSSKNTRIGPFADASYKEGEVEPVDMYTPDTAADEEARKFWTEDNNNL
Description: as §1, §2

[6] = molecular target: T5, Ste2p; assay: Western blot of DTT-extracted Aga2-HA; assay type: cell-based, S. cerevisiae; conditions: increasing concentrations of ligand vs absence
Description: as §1

[7] = molecular target: T6, Ste2 receptor (Saccharomyces cerevisiae, UniProt D6VTK4); assay: ELISA-like assay of endogenous Aga2 protein with Sag1p21-352, anti-Xpress antibodies and HRP conjugate; assay type: cell-based, S. cerevisiae; conditions: yeast cells containing the Ste2 receptor, peroxidase assay
T6 construct: Yeast cells coexpressing either the endogenous yeast receptor Ste2p; endogenous in cells; host or cells: S. cerevisiae MATa cells (strain CY1892 in the Sag1p-based ELISA)
T6 sequence (D6VTK4 1-431): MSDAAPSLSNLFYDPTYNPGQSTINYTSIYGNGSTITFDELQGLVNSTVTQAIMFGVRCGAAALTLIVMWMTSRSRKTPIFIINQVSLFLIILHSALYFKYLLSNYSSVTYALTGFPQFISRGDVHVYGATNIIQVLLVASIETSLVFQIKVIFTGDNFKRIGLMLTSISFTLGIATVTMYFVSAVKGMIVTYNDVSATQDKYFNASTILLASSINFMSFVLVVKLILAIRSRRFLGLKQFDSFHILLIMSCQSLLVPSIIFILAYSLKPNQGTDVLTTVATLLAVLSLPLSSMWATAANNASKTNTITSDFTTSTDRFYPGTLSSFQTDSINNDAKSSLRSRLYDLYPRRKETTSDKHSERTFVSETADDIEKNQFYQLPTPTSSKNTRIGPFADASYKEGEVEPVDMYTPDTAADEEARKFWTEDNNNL
Description: as §3, §4

[8] = tested on: intact MATa cells (strain CY1892); assay: Binding of Sag1p21-352 to yeast cell surface (Western blot of SDS extracts); parameters: species or system S. cerevisiae; conditions: cells with or without 100 nM α-factor; 30° C., 30 min
Description: To ensure that this truncation of the Sag1 protein retained full binding activity to α-agglutinin, and more specifically, the Aga2 protein, binding assays were performed. […] The cells (TOD600=1) were pelleted and resuspended in 0.15 ml of the same media supplemented with varying concentrations of Sag1p^21-352. After incubation at 30° C. for 30 min, the cells were washed three times with the same media and incubated in the presence of 2% SDS for 5 min to release Sag1p^21-352 bound to the cell surface. The SDS extracts were subjected to Western blot analysis. The immunoreactive bands corresponding to Sag1p^21-352 were visualized using anti-Xpress antibodies (Invitrogen), as above.

T4 sequence (P48039 whole entry): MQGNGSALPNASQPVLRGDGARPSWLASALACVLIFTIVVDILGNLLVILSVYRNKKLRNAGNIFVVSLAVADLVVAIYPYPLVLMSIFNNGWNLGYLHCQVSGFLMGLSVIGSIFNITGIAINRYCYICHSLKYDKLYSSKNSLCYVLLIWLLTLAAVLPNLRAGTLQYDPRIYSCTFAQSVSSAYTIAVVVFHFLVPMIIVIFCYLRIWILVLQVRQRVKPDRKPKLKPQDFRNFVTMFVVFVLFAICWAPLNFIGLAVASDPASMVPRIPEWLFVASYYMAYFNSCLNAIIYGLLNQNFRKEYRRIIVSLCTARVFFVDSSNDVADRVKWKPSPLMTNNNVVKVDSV
T1 sequence (P48039 whole entry): as above
T3 sequence (P48039 whole entry): as above
T2 sequence (P48039 whole entry): as above

`COc1ccc2[nH]cc(CCNC(C)=O)c2c1` [melatonin] gave an HRP activity ([1]; [Ligand] 1 × 10^−6 M) of 1.112, an HRP activity ([1]; [Ligand] 1.13 × 10^−7 M) of 0.829 and an HRP activity ([1]; [Ligand] 1.95 × 10^−9 M) of 0.278. It also gave an HRP activity ([1]; [Ligand] 3.13 × 10^−8 M) of 0.767, an HRP activity ([1]; [Ligand] 4.88 × 10^−10 M) of 0.154 and an HRP activity ([1]; [Ligand] 5 × 10^−7 M) of 1.216. For the same molecule, the HRP activity ([1]; [Ligand] 7.81 × 10^−9 M) was 0.427, the Induction factor ([1]; cell surface Aga2-HA, ML1aR) was 19 and the “expression level of the Aga2 protein” value [2] was “substantial increase”. The “induction of the Aga2 protein” value [3] was “dose-dependent response”, the “increase in the levels of HA-tagged Aga2p in the culture media” value ([4]; scintillation proximity assay) was “approximately 3 fold” and the Induction factor ([4]; incubation time 1 hr) was 2.5. It also gave an Induction factor ([4]; incubation time 2 hr) of 2.6 and an Induction factor ([4]; incubation time 6 hr) of 3.1.

For α-factor, the HRP activity ([5]; [Ligand] 1.13 × 10^−7 M) was 2.163, the HRP activity ([5]; [Ligand] 2 × 10^−6 M) was 2.332 and the HRP activity ([5]; [Ligand] 3.13 × 10^−8 M) was 0.548. The HRP activity ([5]; [Ligand] 5 × 10^−7 M) was 2.498, the HRP activity ([5]; [Ligand] 7.81 × 10^−9 M) was 0.280 and the Induction factor ([5]; cell surface Aga2-HA, Ste2p) was 15. For the same molecule, the “expression level of the Aga2 protein” value [6] was “substantial increase” and the “induction of the Aga2 protein” value [7] was “dose-dependent response”.

B1: Sag1p^21-352: N-terminal portion of Sag1p (α-agglutinin, residues 21–352) bearing a polyhistidine tag, Xpress epitope and enterokinase cleavage site (protein)
chain: NINDITFSNLEITPLTANKQPDQGWTATFDFSIADASSIREGDEFTLSMPHVYRIKLLNSSQTATISLADGTEAFKCYVSQQAAYLYENTTFTCTAQNDLSSYNTIDGSITFSLNFSDGGSSYEYELENAKFFKSGPMLVKLGNQMSDVVNFDPAAFTENVFHSGRSTGYGSFESYHLGMYCPNGYFLGGTEKIDYDSSNNNVDLDCSSVQVYSSNDFNDWWFPQSYNDTNADVTCFGSNLWITLDEKLYDGEMLWVNALQSLPANVNTIDHALEFQYTCLDTIANTTYATQFSTTREFIVYQGRNLGTASAKSSFISTTTTDLTSINTSAY
modifications: left off: small tags and cut ends
With B1 the “binding to the cell surface of intact MATa cells” value [8] was “bound to the cell surface of intact MATa cells only after these cells were treated with α-factor”.
